# How the values were obtained:
# rat mGluR5 = rat mGluR5 (Rattus norvegicus (Rat), UniProt P31424); test: Calcium mobilization assay in HEK 293A cells stably expressing rat mGluR5; type: cell-based; settings: for IC50: HEK cells transfected with rat mGluR5, inhibition of glutamate EC80 response, ± standard error where average of at least three experiments; for remaining activity at 30 µM: HEK293-A, amplitude of response in the presence of 30 μM test compound as a percentage of maximal response (100 μM glutamate), read-out: % Glu Max
# Method: The cells were grown overnight at 37° C. in the presence of 5% CO2. […] Dye was removed, 20 μL of assay buffer was added, and the plate was incubated for 5 minutes at room temperature.
# Ca^2+ flux was measured using the Functional Drug Screening System (FDSS7000, Hamamatsu, Japan). After establishment of a fluorescence baseline for about 3 seconds, the compounds of the present invention were added to the cells, and the response in cells was measured. 2.3 minutes later an EC20 concentration of the mGluR5 receptor agonist glutamate was added to the cells, and the response of the cells was measured for 1.9 minutes; an EC80 concentration of agonist was added and readings taken for an additional 1.7 minutes. All test compounds were dissolved and diluted to a concentration of 10 mM in 100% DMSO. Compounds were then serially diluted 1:3 in DMSO into 10 point concentration response curves, transferred to daughter plates, and further diluted into assay buffer to a 2× stock. Calcium fluorescence measures were recorded as fold over basal fluorescence; raw data was then normalized to the maximal response to glutamate.
# The raw data file containing all time points was used as the data source in the analysis template. This was saved by the FDSS as a tab-delimited text file. Data were normalized using a static ratio function (F/F0) for each measurement of the total 360 values per well divided by each well's initial value. Data were then reduced to peak amplitudes (Max−Initial Min) using a time range that starts approximately 3 seconds prior to the glutamate EC20/EC80 addition and continues for approximately 90-120 seconds. This is sufficient time to capture the peak amplitude of the cellular calcium response. Individual amplitudes were expressed as % EMax by multiplying each amplitude by 100 and then dividing the product by the mean of the amplitudes derived from the glutamate ECMax-treated wells. IC50 values for test compounds were generated by fitting the normalized values versus the log of the test compound concentration (in mol/L) using a 4 parameter logistic equation where none of the parameters were fixed. Each of the three values collected at each concentration of test compound were weighted evenly.
# The mGluR5 activity was determined using the calcium mobilization assays in human embryonic kidney cells as described herein below, wherein the human embryonic kidney cells were transfected with rat mGluR5. The mGluR5 activity data for some compounds are shown as the average of at least three experiments with the standard error in these cases. If no error is indicated for the mGluR5 activity, the values given represent the results from a single experiment or the average of two experiments. The compounds in Table 1 were synthesized with methods identical or analogous to those shown herein. The requisite starting materials were commercially available, described in the literature, or readily synthesized by one skilled in the art of organic synthesis.
# GluMax is the amplitude of response in the presence of 30 μM test compound as a percentage of maximal response (100 μM glutamate). Partial antagonists display concentration-response curves (CRCs) that plateau above 10%.
# cytochrome P450 1A2 = cytochrome P450 1A2 (Homo sapiens (Human), UniProt P05177); settings: cited from earlier work
# [1] = intravenous administration, rhesus monkeys; cited from earlier work
# [2] = system: N-methyl-D-aspartate (NMDA) receptor; settings: at higher concentrations; cited from earlier work
# mGluR4 = mGluR4 (Homo sapiens (Human), UniProt Q14833); settings: cited from earlier work
# mGluR4, sequence (Q14833 33-912): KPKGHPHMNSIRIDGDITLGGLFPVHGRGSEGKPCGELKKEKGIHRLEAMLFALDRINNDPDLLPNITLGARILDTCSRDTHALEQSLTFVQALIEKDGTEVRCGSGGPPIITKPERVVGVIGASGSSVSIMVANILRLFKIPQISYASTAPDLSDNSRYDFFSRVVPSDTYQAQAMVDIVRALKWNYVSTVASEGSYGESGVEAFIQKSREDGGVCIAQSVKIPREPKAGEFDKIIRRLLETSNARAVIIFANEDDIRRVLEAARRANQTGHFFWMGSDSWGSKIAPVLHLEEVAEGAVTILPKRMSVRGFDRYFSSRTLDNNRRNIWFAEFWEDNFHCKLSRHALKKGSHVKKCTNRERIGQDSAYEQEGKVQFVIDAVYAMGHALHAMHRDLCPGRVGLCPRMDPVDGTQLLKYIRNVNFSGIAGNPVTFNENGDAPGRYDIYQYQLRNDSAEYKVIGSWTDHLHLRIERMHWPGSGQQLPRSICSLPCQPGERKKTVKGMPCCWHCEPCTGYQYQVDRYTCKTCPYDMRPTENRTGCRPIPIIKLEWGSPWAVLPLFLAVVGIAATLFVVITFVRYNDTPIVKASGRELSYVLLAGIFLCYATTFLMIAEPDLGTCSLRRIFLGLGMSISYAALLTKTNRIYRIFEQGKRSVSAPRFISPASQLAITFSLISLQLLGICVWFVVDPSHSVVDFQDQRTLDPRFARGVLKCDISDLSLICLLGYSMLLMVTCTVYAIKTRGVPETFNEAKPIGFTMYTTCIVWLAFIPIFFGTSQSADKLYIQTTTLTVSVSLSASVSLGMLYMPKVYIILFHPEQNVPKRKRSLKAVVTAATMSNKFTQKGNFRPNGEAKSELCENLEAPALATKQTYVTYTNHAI
# rat mGluR5, sequence (P31424 21-1203): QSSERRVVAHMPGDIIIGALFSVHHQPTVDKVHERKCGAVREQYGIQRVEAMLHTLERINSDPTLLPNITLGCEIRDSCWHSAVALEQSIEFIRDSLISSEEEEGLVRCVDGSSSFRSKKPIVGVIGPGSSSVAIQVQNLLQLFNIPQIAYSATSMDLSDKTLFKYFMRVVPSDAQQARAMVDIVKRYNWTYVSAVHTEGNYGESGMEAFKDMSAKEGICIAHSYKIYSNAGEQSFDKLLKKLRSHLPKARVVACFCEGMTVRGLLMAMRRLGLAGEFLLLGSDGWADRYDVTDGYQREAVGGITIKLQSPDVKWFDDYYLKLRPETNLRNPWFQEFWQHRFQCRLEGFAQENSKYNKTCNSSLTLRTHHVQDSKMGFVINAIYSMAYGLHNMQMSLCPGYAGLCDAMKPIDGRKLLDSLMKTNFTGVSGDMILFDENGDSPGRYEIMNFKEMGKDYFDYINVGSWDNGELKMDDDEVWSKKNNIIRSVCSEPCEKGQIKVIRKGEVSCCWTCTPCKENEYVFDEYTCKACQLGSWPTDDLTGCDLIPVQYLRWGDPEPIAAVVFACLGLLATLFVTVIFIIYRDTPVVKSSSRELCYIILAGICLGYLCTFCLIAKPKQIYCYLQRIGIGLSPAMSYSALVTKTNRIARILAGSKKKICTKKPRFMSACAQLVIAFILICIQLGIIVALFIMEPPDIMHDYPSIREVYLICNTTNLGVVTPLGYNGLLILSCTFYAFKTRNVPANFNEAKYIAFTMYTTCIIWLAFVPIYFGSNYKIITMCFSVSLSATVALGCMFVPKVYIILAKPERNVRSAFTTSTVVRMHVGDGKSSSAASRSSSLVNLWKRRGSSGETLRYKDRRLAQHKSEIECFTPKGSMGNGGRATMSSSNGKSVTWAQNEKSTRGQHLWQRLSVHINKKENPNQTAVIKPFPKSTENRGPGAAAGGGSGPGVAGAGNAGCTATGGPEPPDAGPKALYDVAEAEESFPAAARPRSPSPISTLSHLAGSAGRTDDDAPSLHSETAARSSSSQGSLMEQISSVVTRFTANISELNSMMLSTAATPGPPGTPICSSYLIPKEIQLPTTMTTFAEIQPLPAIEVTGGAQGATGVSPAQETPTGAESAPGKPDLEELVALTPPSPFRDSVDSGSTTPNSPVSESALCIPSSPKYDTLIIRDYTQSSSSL
# cytochrome P450 1A2, sequence (P05177 whole entry, species assumed): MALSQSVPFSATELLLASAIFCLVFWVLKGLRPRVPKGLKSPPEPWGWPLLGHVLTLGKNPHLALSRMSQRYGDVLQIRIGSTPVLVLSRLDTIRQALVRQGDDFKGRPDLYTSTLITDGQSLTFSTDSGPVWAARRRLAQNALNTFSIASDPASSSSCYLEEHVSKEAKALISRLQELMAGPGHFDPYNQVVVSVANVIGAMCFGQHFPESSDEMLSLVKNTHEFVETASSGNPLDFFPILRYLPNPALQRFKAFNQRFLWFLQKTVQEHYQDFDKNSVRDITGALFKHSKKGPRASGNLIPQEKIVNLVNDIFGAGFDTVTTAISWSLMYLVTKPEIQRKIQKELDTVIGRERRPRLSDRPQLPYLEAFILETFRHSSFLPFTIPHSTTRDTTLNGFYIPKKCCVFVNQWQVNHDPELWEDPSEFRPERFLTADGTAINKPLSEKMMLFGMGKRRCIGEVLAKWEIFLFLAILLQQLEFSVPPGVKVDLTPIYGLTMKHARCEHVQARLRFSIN
Compound,IC50 (rat mGluR5),further results
Cc1cc(-c2cc(C(=O)Nc3nc(C)cs3)c3ncnn3c2)ccn1,10000 nM,–
COc1ccc(C)c(-c2cc(C(=O)Nc3nc(C)cs3)c3ncnn3c2)c1,7100 nM,–
Cc1csc(NC(=O)c2cc(-c3cccc4cnn(C)c34)cn3ncnc23)n1,10200 nM,–
Cc1cc(-c2cc(C(=O)Nc3cccc(F)n3)c3ncnn3c2)n(C)n1,835 nM,–
Cc1csc(NC(=O)c2cc(-c3cc(C)nn3C)cn3ncnc23)n1,690 nM,–
CCc1cccc(NC(=O)c2cc(-c3cnccc3C)cn3ncnc23)n1,1760 nM,–
CCc1ccncc1-c1cc(C(=O)Nc2nc(C)cs2)c2ncnn2c1,984 nM,–
Cc1csc(NC(=O)c2cc(-c3cn(C)nc3C)cn3ncnc23)n1,2160 nM,–
Cc1csc(NC(=O)c2cc(-c3cccc(F)c3)cn3ncnc23)n1,788 nM,–
Cc1ccc(NC(=O)c2cc(-c3cc(C)n[nH]3)cn3ccnc23)nc1,5110 nM,–
Cc1csc(NC(=O)c2cc(-c3cncnc3)cn3ncnc23)n1,758 ± 280 nM,–
Cc1csc(NC(=O)c2cc(-c3ccccc3C)cn3ncnc23)n1,7940 nM,–
Cc1csc(NC(=O)c2cc(-c3ccc4ncccc4c3)cn3ncnc23)n1,> 10000 nM,remaining activity at 30 µM (rat mGluR5): 74%
Cn1nccc1-c1cc(C(=O)Nc2ccc(F)cn2)c2nncn2c1,1450 nM,–
Cc1csc(NC(=O)c2cc(-c3cccnc3F)cn3ncnc23)n1,978 nM,–
Cc1csc(NC(=O)c2cc(-c3ccc4c(ccn4C)c3)cn3ncnc23)n1,> 10000 nM,remaining activity at 30 µM (rat mGluR5): 27%
Cc1csc(NC(=O)c2cc(-c3ccccc3)cn3ncnc23)n1,385 nM,–
Cc1csc(NC(=O)c2cc(-c3cnccc3C3CC3)cn3ncnc23)n1,1010 nM,–
Cc1csc(NC(=O)c2cc(-c3cnn(C)c3)cn3ncnc23)n1,> 10000 nM,remaining activity at 30 µM (rat mGluR5): 30%
Cc1csc(NC(=O)c2cc(-c3cccnc3)cn3ncnc23)n1,587 nM,–
Cc1cc(-c2cc(C(=O)Nc3ccc(F)cn3)c3ncnn3c2)[nH]n1,> 30000 nM,–
Cc1ccncc1-c1cc(C(=O)Nc2ccc(F)cn2)c2ncnn2c1,> 10000 nM,remaining activity at 30 µM (rat mGluR5): 52%
Cc1cc(C)cc(-c2cc(C(=O)Nc3nc(C)cs3)c3ncnn3c2)c1,> 10000 nM,remaining activity at 30 µM (rat mGluR5): 57%
Cc1cc(-c2cc(C(=O)Nc3ccc(F)cn3)c3ncnn3c2)n(C)n1,2130 nM,–
Cc1csc(NC(=O)c2cc(-c3cnncc3C)cn3ncnc23)n1,2910 nM,–
COc1cccc(NC(=O)c2cc(-c3cnccc3C)cn3ncnc23)n1,> 10000 nM,remaining activity at 30 µM (rat mGluR5): 31%

Compound,IC50 (rat mGluR5),further results
Cc1csc(NC(=O)c2cc(-c3cnccc3C)cn3ncnc23)n1,170 nM,–
"Cc1nc(C#Cc2cccnc2)cs1 [MTEP, 3-[(2-methyl-1,3-thiazol-4-yl)ethynyl]pyridine]",–,inhibition of cytochrome P450 1A2 (cytochrome P450 1A2): potent inhibitor; clearance [1]: efficiently cleared
Cc1csc(NC(=O)c2cc(-c3ccc4c(cnn4C)c3)cn3ncnc23)n1,> 10000 nM,remaining activity at 30 µM (rat mGluR5): 53%
Cc1csc(NC(=O)c2cc(-c3ccnnc3)cn3ncnc23)n1,> 10000 nM,remaining activity at 30 µM (rat mGluR5): 27%
Cc1csc(NC(=O)c2cc(-c3cc4ccccc4o3)cn3ncnc23)n1,> 10000 nM,remaining activity at 30 µM (rat mGluR5): 39%
Cc1csc(NC(=O)c2cc(-c3cccc4c3cnn4C)cn3ncnc23)n1,7020 nM,–
COc1cnc(-c2cc(C(=O)Nc3nc(C)cs3)c3ncnn3c2)cn1,> 10000 nM,remaining activity at 30 µM (rat mGluR5): 71%
Cc1csc(NC(=O)c2cc(-c3ccnn3C)cn3ncnc23)n1,378 ± 17 nM,–
Cc1cccc(NC(=O)c2cc(-c3cnccc3C)cn3ncnc23)n1,793 nM,–
Cc1ccc(NC(=O)c2cc(-c3cnccc3C)cn3ncnc23)nc1,325 nM,–
Cc1cc(-c2cc(C(=O)Nc3nc(C)cs3)c3ncnn3c2)[nH]n1,60 ± 8 nM,–
Cc1csc(NC(=O)c2cc(-c3cnc(F)c(C)c3)cn3ncnc23)n1,2810 nM,–
Cc1cc(-c2cc(C(=O)Nc3ccc(F)cn3)c3nccn3c2)[nH]n1,3930 nM,–
Cc1csc(NC(=O)c2cc(-c3ccc4occc4c3)cn3ncnc23)n1,> 30000 nM,–
Cc1csc(NC(=O)c2cc(-c3ccc(F)nc3)cn3ncnc23)n1,4930 nM,–
Cc1cncc(-c2cc(C(=O)Nc3nc(C)cs3)c3ncnn3c2)c1,1500 nM,–
Cc1csc(NC(=O)c2cc(-c3ccncc3)cn3ncnc23)n1,8070 nM,–
Cc1cc(-c2cc(C(=O)Nc3nc(C)cs3)c3nccn3c2)[nH]n1,1410 nM,–
Cc1ccncc1-c1cc(C(=O)Nc2ccccn2)c2ncnn2c1,358 nM,–
CCn1nccc1-c1cc(C(=O)Nc2nc(C)cs2)c2ncnn2c1,3920 nM,–
"Cc1cccc(C#Cc2ccccc2)n1 [MPEP, 2-methyl-6-(phenylethynyl)pyridine]",–,inhibition of NMDA receptor activity [2]: directly inhibit; activity at mGluR4 (mGluR4): positive allosteric modulator
COc1ccc(NC(=O)c2cc(-c3cnccc3C)cn3ncnc23)nc1,1310 nM,–
Cc1cccc(-c2cc(C(=O)Nc3nc(C)cs3)c3ncnn3c2)c1,4770 nM,–
Cc1csc(NC(=O)c2cc(-c3ccc4cnn(C)c4c3)cn3ncnc23)n1,> 10000 nM,remaining activity at 30 µM (rat mGluR5): 30%
Cc1cc(-c2cc(C(=O)Nc3ccccn3)c3nccn3c2)[nH]n1,1140 nM,–
Cc1csc(NC(=O)c2cc(-c3ccn(C)n3)cn3ncnc23)n1,> 10000 nM,remaining activity at 30 µM (rat mGluR5): 70%

# Reference: US9550778B2, “Substituted 6-aryl-imidazopyridine and 6-aryl-triazolopyridine carboxamide analogs as negative allosteric modulators of mGluR5” (Vanderbilt University, priority 2014, dated 2017)
